Laboratory results published in ChEMBL document CHEMBL4229333, “Effects of rigidity on the selectivity of protein kinase inhibitors” (Eur J Med Chem, 2018).

Tests used:
[1] = biological target: Mitogen-activated protein kinase 1 (Homo sapiens) (UniProt P28482); assay: Inhibition of MAPK1 (unknown origin) at 1 uM by mobility shift microfluidics platform based assay relative to control
[2] = biological target: Homeodomain-interacting protein kinase 3 (Homo sapiens) (UniProt Q9H422); assay: Inhibition of HIPK3 (unknown origin) at 1 uM by mobility shift microfluidics platform based assay relative to control
[3] = biological target: Mitogen-activated protein kinase 9 (Homo sapiens) (UniProt P45984); assay: Inhibition of JNK2 (unknown origin) at 1 uM by mobility shift microfluidics platform based assay relative to control
[4] = biological target: Tyrosine-protein kinase Lyn (Homo sapiens) (UniProt P07948); assay: Inhibition of LYNA (unknown origin) at 1 uM by mobility shift microfluidics platform based assay relative to control
[5] = biological target: Mitogen-activated protein kinase 11 (Homo sapiens) (UniProt Q15759); assay: Inhibition of P38-beta (unknown origin) at 1 uM by mobility shift microfluidics platform based assay relative to control
Mitogen-activated protein kinase 11 (Homo sapiens), sequence (Q15759 whole entry): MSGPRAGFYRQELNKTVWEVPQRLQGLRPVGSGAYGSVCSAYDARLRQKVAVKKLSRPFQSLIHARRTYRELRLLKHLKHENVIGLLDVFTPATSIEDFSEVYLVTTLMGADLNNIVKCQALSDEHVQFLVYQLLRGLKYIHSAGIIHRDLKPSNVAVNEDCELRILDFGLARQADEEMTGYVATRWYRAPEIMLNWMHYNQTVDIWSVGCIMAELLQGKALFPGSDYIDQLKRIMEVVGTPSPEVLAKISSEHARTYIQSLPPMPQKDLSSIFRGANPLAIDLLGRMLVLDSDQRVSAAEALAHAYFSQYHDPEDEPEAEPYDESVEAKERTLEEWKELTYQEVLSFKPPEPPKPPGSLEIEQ

[6] = biological target: Homeodomain-interacting protein kinase 2 (Homo sapiens) (UniProt Q9H2X6); assay: Inhibition of HIPK2 (unknown origin) at 1 uM by mobility shift microfluidics platform based assay relative to control
[7] = biological target: Serine/threonine-protein kinase 25 (Homo sapiens) (UniProt O00506); assay: Inhibition of STK25 (unknown origin) at 1 uM by mobility shift microfluidics platform based assay relative to control
[8] = biological target: Protein NDRG1 (Homo sapiens) (UniProt Q92597); assay: Inhibition of NDRG1 (unknown origin) at 1 uM by mobility shift microfluidics platform based assay relative to control
[9] = biological target: Cyclin-dependent kinase 5/CDK5 activator 1 (Homo sapiens) (UniProt Q00535+Q15078); assay: Inhibition of CDK5-p25 (unknown origin) at 1 uM by mobility shift microfluidics platform based assay relative to control; assay type: protein-complex assay
Cyclin-dependent kinase 5/CDK5 activator 1 (Homo sapiens), sequence (Q00535 whole entry): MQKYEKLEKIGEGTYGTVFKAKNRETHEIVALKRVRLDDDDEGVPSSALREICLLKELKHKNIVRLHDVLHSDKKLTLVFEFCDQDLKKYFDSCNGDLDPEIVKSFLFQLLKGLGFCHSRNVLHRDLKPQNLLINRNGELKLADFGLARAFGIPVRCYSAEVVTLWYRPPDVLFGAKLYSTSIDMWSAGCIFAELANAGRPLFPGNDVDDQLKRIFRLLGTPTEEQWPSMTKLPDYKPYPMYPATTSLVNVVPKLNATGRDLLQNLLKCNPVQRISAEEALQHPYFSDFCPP
Cyclin-dependent kinase 5/CDK5 activator 1 (Homo sapiens), sequence (Q15078 99-307 partner limits assumed): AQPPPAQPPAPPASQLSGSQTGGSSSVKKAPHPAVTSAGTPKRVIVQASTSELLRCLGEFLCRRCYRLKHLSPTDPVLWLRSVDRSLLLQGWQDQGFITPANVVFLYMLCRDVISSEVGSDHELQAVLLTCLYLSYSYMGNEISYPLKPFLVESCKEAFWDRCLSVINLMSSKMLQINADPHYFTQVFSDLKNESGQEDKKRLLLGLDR

[10] = biological target: Tyrosine-protein kinase JAK2 (Homo sapiens) (UniProt O60674); assay: Inhibition of JAK2 (unknown origin) at 1 uM by mobility shift microfluidics platform based assay relative to control
Tyrosine-protein kinase JAK2 (Homo sapiens), sequence (O60674 whole entry): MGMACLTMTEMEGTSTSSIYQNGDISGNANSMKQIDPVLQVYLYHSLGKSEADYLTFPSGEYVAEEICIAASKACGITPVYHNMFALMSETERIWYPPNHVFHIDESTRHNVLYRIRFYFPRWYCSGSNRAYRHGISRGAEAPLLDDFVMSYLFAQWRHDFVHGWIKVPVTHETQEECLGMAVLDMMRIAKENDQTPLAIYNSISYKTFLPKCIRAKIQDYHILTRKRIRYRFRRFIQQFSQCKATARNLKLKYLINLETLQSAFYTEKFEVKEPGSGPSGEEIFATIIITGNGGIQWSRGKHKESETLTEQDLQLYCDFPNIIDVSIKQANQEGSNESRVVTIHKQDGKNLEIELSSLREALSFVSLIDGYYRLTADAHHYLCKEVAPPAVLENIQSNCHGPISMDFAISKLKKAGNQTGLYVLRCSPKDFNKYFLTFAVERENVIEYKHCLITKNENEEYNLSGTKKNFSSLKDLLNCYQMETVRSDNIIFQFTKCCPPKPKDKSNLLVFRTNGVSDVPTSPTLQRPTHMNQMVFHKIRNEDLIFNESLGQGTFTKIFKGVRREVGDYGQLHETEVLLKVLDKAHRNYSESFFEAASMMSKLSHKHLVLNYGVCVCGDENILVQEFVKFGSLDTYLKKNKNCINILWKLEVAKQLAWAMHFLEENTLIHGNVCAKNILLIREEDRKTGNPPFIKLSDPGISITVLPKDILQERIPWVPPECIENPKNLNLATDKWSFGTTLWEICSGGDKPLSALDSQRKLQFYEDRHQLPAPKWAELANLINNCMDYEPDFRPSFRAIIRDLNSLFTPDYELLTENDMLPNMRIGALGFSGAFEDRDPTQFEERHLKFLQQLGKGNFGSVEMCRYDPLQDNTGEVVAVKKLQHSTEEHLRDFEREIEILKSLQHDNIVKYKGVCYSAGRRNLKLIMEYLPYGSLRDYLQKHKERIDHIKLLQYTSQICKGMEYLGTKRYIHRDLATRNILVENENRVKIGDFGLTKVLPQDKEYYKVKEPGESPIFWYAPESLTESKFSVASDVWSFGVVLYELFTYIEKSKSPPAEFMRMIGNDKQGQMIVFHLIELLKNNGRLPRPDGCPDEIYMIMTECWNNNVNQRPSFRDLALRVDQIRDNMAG

[11] = biological target: Inhibitor of nuclear factor kappa-B kinase subunit epsilon (Homo sapiens) (UniProt Q14164); assay: Inhibition of IKK-epsilon (unknown origin) at 1 uM by mobility shift microfluidics platform based assay relative to control
Inhibitor of nuclear factor kappa-B kinase subunit epsilon (Homo sapiens), sequence (Q14164 whole entry): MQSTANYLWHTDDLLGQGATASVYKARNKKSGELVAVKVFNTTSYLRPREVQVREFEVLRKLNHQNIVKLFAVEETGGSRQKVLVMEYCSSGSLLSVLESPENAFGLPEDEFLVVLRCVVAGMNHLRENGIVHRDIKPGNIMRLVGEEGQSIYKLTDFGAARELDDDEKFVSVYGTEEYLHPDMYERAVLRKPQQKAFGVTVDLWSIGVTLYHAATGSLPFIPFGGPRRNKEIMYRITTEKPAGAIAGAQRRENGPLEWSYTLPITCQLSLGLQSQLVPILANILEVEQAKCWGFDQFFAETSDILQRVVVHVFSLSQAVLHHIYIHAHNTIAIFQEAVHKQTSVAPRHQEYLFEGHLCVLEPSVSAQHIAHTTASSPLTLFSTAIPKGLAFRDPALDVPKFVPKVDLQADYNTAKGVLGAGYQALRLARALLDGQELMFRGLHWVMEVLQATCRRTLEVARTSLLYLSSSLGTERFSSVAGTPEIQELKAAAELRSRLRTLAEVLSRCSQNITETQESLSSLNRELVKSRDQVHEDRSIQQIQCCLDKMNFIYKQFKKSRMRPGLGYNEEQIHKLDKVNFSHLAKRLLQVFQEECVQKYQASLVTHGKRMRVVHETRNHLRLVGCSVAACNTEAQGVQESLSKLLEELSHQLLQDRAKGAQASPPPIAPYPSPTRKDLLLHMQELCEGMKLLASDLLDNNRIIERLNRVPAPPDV

[12] = biological target: Proto-oncogene tyrosine-protein kinase Src (Homo sapiens) (UniProt P12931); assay: Inhibition of SRC (unknown origin) at 1 uM by mobility shift microfluidics platform based assay relative to control
[13] = biological target: Serine/threonine-protein kinase SIK1 (Homo sapiens) (UniProt P57059); assay: Inhibition of SIK (unknown origin) at 1 uM by mobility shift microfluidics platform based assay relative to control
[14] = biological target: Tyrosine-protein kinase TXK (Homo sapiens) (UniProt P42681); assay: Inhibition of TXK (unknown origin) at 1 uM by mobility shift microfluidics platform based assay relative to control
Tyrosine-protein kinase TXK (Homo sapiens), sequence (P42681 whole entry): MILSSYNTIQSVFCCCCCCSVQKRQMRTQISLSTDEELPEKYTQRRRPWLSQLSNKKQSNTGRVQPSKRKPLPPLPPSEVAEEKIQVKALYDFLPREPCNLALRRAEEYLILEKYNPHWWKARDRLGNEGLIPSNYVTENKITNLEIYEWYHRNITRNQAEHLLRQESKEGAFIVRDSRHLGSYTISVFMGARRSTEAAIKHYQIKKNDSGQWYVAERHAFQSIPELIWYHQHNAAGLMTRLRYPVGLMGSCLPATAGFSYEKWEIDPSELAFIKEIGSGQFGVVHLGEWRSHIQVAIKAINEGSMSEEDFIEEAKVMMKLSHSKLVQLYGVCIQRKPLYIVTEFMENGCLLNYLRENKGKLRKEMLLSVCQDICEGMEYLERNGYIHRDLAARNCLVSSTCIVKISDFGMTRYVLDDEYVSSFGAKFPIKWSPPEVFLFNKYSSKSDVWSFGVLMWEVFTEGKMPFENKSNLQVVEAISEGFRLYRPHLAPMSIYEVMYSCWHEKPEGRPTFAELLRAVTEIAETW

Homo sapiens = species: Homo sapiens; assay: Inhibition of CDK6/Cyclin D (unknown origin) at 1 uM by mobility shift microfluidics platform based assay relative to control
[15] = biological target: Hepatocyte growth factor receptor (Homo sapiens) (UniProt P08581); assay: Inhibition of MET (unknown origin) at 1 uM by mobility shift microfluidics platform based assay relative to control
[16] = biological target: Serine/threonine-protein kinase Chk1 (Homo sapiens) (UniProt O14757); assay: Inhibition of CHEK1 (unknown origin) at 1 uM by mobility shift microfluidics platform based assay relative to control
Serine/threonine-protein kinase Chk1 (Homo sapiens), sequence (O14757 whole entry): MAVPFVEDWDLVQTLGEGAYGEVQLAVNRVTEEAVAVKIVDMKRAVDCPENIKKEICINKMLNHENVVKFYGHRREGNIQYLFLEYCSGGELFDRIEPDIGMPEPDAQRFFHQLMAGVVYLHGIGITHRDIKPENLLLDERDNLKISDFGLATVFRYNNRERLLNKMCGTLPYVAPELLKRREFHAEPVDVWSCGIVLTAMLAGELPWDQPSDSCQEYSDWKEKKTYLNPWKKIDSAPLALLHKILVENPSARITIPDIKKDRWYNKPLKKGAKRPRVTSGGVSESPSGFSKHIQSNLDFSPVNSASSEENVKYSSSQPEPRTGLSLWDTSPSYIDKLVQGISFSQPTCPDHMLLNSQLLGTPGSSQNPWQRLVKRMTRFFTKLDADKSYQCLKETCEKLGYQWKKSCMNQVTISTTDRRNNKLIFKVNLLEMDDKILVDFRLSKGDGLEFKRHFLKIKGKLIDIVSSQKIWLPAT

[17] = biological target: Mitogen-activated protein kinase 14 (Homo sapiens) (UniProt Q16539); assay: Inhibition of P38-alpha (unknown origin) at 1 uM by mobility shift microfluidics platform based assay relative to control
[18] = biological target: Macrophage colony-stimulating factor 1 receptor (Homo sapiens) (UniProt P07333); assay: Inhibition of FMS (unknown origin) at 1 uM by mobility shift microfluidics platform based assay relative to control
[19] = biological target: G protein-coupled receptor kinase 6 (Homo sapiens) (UniProt P43250); assay: Inhibition of GRK6 (unknown origin) at 1 uM by mobility shift microfluidics platform based assay relative to control
[20] = biological target: Dual specificity protein kinase CLK1 (Homo sapiens) (UniProt P49759); assay: Inhibition of CLK1 (unknown origin) at 1 uM by mobility shift microfluidics platform based assay relative to control
[21] = biological target: Dual specificity mitogen-activated protein kinase kinase 2 (Homo sapiens) (UniProt P36507); assay: Inhibition of MEK2 (unknown origin) at 1 uM by mobility shift microfluidics platform based assay relative to control
[22] = biological target: Cyclin-T1/Cyclin-dependent-like kinase 5 (Homo sapiens) (UniProt Q00535+O60563); assay: Inhibition of CDK5/cyclin T1 (unknown origin) at 1 uM by mobility shift microfluidics platform based assay relative to control; assay type: protein-complex assay
[23] = biological target: Fibroblast growth factor receptor 3 (Homo sapiens) (UniProt P22607); assay: Inhibition of FGFR3 (unknown origin) at 1 uM by mobility shift microfluidics platform based assay relative to control
[24] = biological target: Cytoplasmic tyrosine-protein kinase BMX (Homo sapiens) (UniProt P51813); assay: Inhibition of BMX (unknown origin) at 1 uM by mobility shift microfluidics platform based assay relative to control
[25] = biological target: Tyrosine-protein kinase JAK3 (Homo sapiens) (UniProt P52333); assay: Inhibition of JAK3 (unknown origin) at 1 uM by mobility shift microfluidics platform based assay relative to control
[26] = biological target: Serine/threonine-protein kinase 3 (Homo sapiens) (UniProt Q13188); assay: Inhibition of MST2 (unknown origin) at 1 uM by mobility shift microfluidics platform based assay relative to control
Serine/threonine-protein kinase 3 (Homo sapiens), sequence (Q13188 whole entry): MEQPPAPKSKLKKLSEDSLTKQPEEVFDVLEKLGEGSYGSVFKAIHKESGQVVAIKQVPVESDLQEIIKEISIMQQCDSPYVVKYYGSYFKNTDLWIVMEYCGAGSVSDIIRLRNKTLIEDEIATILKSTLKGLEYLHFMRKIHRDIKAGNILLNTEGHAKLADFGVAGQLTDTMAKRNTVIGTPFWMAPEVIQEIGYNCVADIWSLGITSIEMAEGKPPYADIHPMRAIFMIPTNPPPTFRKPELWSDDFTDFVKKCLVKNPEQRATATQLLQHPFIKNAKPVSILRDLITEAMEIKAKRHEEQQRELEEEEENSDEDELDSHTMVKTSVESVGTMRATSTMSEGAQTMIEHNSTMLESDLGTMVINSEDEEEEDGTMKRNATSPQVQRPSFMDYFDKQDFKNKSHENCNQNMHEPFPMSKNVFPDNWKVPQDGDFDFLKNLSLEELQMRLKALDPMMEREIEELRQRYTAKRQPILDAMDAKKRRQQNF

[27] = biological target: Ribosomal protein S6 kinase alpha-2 (Homo sapiens) (UniProt Q15349); assay: Inhibition of RSK3 (unknown origin) at 1 uM by mobility shift microfluidics platform based assay relative to control
[28] = biological target: Tyrosine-protein kinase SYK (Homo sapiens) (UniProt P43405); assay: Inhibition of SYK (unknown origin) at 1 uM by mobility shift microfluidics platform based assay relative to control
[29] = biological target: Tyrosine-protein kinase Blk (Homo sapiens) (UniProt P51451); assay: Inhibition of BLK (unknown origin) at 1 uM by mobility shift microfluidics platform based assay relative to control
Tyrosine-protein kinase Blk (Homo sapiens), sequence (P51451 2-505 limits assumed): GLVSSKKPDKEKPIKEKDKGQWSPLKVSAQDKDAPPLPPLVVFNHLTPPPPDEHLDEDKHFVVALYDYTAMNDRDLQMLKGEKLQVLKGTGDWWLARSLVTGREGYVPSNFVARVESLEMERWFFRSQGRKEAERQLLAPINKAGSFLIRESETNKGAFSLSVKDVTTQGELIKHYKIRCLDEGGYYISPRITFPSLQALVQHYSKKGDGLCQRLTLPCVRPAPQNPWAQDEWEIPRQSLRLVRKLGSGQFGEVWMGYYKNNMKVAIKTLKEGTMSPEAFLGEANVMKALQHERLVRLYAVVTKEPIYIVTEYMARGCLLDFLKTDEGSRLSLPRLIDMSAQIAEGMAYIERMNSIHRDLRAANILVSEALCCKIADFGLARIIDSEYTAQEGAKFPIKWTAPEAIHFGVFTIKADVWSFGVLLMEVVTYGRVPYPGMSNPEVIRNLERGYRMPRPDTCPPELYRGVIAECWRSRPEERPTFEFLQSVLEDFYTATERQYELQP

[30] = biological target: TRAF2 and NCK-interacting protein kinase (Homo sapiens) (UniProt Q9UKE5); assay: Inhibition of TNIK (unknown origin) at 1 uM by mobility shift microfluidics platform based assay relative to control
[31] = biological target: Calcium/calmodulin-dependent protein kinase type II subunit gamma (Homo sapiens) (UniProt Q13555); assay: Inhibition of CAMK2G (unknown origin) at 1 uM by mobility shift microfluidics platform based assay relative to control
[32] = biological target: Mitogen-activated protein kinase 3 (Homo sapiens) (UniProt P27361); assay: Inhibition of MAPK3 (unknown origin) at 1 uM by mobility shift microfluidics platform based assay relative to control
[33] = biological target: Rhodopsin kinase GRK7 (Homo sapiens) (UniProt Q8WTQ7); assay: Inhibition of GRK7 (unknown origin) at 1 uM by mobility shift microfluidics platform based assay relative to control

CC(C)n1nc(C#Cc2cccc3cc(-c4cccc(C(F)(F)F)c4)ncc23)c2c(N)ncnc21
inhibition [1]: 2%
inhibition [2]: -1%
inhibition [3]: 8%
inhibition [4]: 95%
inhibition [5]: 3%
inhibition [6]: -1%
inhibition [7]: 3%
inhibition [8]: 6%
inhibition [9]: 2%
inhibition [10]: 3%
inhibition [11]: 8%
inhibition [12]: 80%
inhibition [13]: 7%
inhibition [14]: 5%
inhibition (Homo sapiens): 0%
inhibition [15]: -1%
inhibition [16]: -1%
inhibition [17]: 15%
inhibition [18]: 87%
inhibition [19]: 3%
inhibition [20]: -1%
inhibition [21]: 6%
inhibition [22]: -2%
inhibition [23]: 34%
inhibition [24]: 36%
inhibition [25]: 10%
inhibition [26]: 2%
inhibition [27]: 2%
inhibition [28]: 6%
inhibition [29]: 57%
inhibition [30]: 4%
inhibition [31]: 2%
inhibition [32]: 1%
inhibition [33]: 5%

CC(C)n1nc(C#Cc2cccc(NC(=O)c3cccc(C(F)(F)F)c3)c2)c2c(N)ncnc21
inhibition [1]: 0%
inhibition [2]: 0%
inhibition [3]: 26%
inhibition [4]: 99%
inhibition [5]: 23%
inhibition [6]: 0%
inhibition [7]: -5%
inhibition [8]: -3%
inhibition [9]: 2%
inhibition [10]: 77%
inhibition [11]: 17%
inhibition [12]: 100%
inhibition [13]: 43%
inhibition [14]: 94%
inhibition (Homo sapiens): -1%
inhibition [15]: 8%
inhibition [16]: -1%
inhibition [17]: 70%
inhibition [18]: 99%
inhibition [19]: -9%
inhibition [20]: 2%
inhibition [21]: 25%
inhibition [22]: 5%
inhibition [23]: 52%
inhibition [24]: 98%
inhibition [25]: 30%
inhibition [26]: 2%
inhibition [27]: 10%
inhibition [28]: -4%
inhibition [29]: 95%
inhibition [30]: 71%
inhibition [31]: 0%
inhibition [32]: 1%
inhibition [33]: 1%
